Results reported in the NIST ThermoML archive (doi:10.1021/je050170x).

Legend:
[1] = refractive index (Na D-line) (dimensionless); details: 101.33 kPa, Liquid, Standard Abbe refractometry
[2] = for surface tension liquid-gas: Wilhelmy-plate method; for mass density / viscosity: 101.33 kPa, Liquid; for viscosity: Capillary tube (Ostwald / Ubbelohde) method

CCOC(=O)CC(C)=O [ethyl 3-oxobutanoate]
Details	mass density, [2] [kg/m3]	refractive index, [1]	surface tension liquid-gas, [2] [mN/m]	viscosity, [2] [mPa·s]
288.15 K	1033.92	1.42091	33.3	1.902
298.15 K	1023.45	1.41658	32.3	1.581
308.15 K	–	1.41246	31.1	1.344
318.15 K	–	1.40803	30	1.144
328.15 K	992.26	1.40386	29.1	0.981
338.15 K	981.58	1.39949	28.2	0.847
348.15 K	971.05	1.3951	27	0.736
358.15 K	960.46	1.39061	26.1	0.644

CCOC(=O)c1ccccc1 [ethyl benzoate]
Details	mass density, [2] [kg/m3]	refractive index, [1]	surface tension liquid-gas, [2] [mN/m]	viscosity, [2] [mPa·s]
288.15 K	1050.78	1.5076	35.7	2.444
298.15 K	1041.42	1.50328	34.6	1.971
308.15 K	1032.07	1.49863	33.3	1.623
318.15 K	1022.73	1.49391	32.5	1.368
328.15 K	1013.4	1.48946	31.5	1.169
338.15 K	1004.06	1.4847	30.2	1.016
348.15 K	994.7	1.48004	29.3	0.89
358.15 K	985.31	1.47526	28.4	0.784

CCCCCC(=O)OCC [ethyl hexanoate]
Details	mass density, [2] [kg/m3]	refractive index, [1]	surface tension liquid-gas, [2] [mN/m]	viscosity, [2] [mPa·s]
288.15 K	875.64	1.4095	26.4	1.102
298.15 K	866.29	1.40504	25.4	0.94
308.15 K	856.91	1.40055	24.5	0.814
318.15 K	847.5	1.39597	23.6	0.711
328.15 K	838.05	1.39164	22.7	0.63
338.15 K	828.55	1.38705	21.8	0.562
348.15 K	818.99	1.38239	21	0.504
358.15 K	809.34	1.37768	20	0.452

CCCCCCCC(=O)OCC [ethyl octanoate]
Details	mass density, [2] [kg/m3]	refractive index, [1]	surface tension liquid-gas, [2] [mN/m]	viscosity, [2] [mPa·s]
288.15 K	870.79	1.41991	27.2	1.697
298.15 K	862.15	1.4156	26.4	1.411
308.15 K	853.52	1.41137	25.5	1.193
318.15 K	844.87	1.40702	24.7	1.027
328.15 K	836.21	1.40294	23.8	0.892
338.15 K	827.53	1.39857	22.8	0.784
348.15 K	818.58	1.39418	22	0.694
358.15 K	810.05	1.38974	21.4	0.617

CCOC(=O)Cc1ccccc1 [ethyl phenylacetate]
Details	mass density, [2] [kg/m3]	refractive index, [1]	surface tension liquid-gas, [2] [mN/m]	viscosity, [2] [mPa·s]
288.15 K	1036.35	1.49971	35.9	3.002
298.15 K	1026.96	1.49513	34.6	2.384
308.15 K	1017.6	1.49063	33.5	1.948
318.15 K	1008.26	1.48583	32.8	1.624
328.15 K	998.93	1.48149	31.6	1.383
338.15 K	989.61	1.47688	30.6	1.191
348.15 K	980.28	1.47224	29.4	1.037
358.15 K	970.95	1.46747	28.6	0.908

COC(=O)c1ccccc1 [methyl benzoate]
Details	mass density, [2] [kg/m3]	refractive index, [1]	surface tension liquid-gas, [2] [mN/m]	viscosity, [2] [mPa·s]
288.15 K	1093.23	1.51915	38.6	2.297
298.15 K	1083.92	1.51467	37.2	1.851
308.15 K	1074.34	1.50993	35.8	1.531
318.15 K	1064.62	1.50514	34.8	1.297
328.15 K	1054.82	1.50058	33.7	1.108
338.15 K	1044.99	1.49584	32.5	0.97
348.15 K	1035.23	1.49107	31.3	0.852
358.15 K	1025.6	1.48624	30.4	0.75
